Experimental data as given in PubChem BioAssay (NCI).
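GI50 is the concentration that inhibits growth by half. TGI denotes the concentration required for complete inhibition of growth.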

Columns and labels:
Assay in all cases: NCI tumour cell line growth inhibition, 384-well format
[1] = tested on: OVCAR-8 ovarian
[2] = tested on: SF-295 CNS
[3] = tested on: ACHN renal
[4] = tested on: MOLT-4 leukemia
[5] = tested on: UACC-257 melanoma
[6] = tested on: HCT-15 colon
[7] = tested on: TK-10 renal
[8] = tested on: NCI/ADR-RES ovarian
[9] = tested on: NCI-H460 NSCLC
[10] = tested on: RXF 393 renal
[11] = tested on: MDA-MB-468 breast
[12] = tested on: A549 NSCLC
[13] = tested on: OVCAR-4 ovarian
[14] = tested on: SNB-19 CNS
[15] = tested on: HOP-62 NSCLC
[16] = tested on: 786-0 renal
[17] = tested on: COLO 205 colon
[18] = tested on: SK-MEL-28 melanoma
[19] = tested on: RPMI-8226 leukemia
[20] = tested on: SK-MEL-2 melanoma
[21] = tested on: SN12C renal
[22] = tested on: M14 melanoma
[23] = tested on: HS 578T breast
[24] = tested on: SF-268 CNS
[25] = tested on: PC-3 prostate
[26] = tested on: HCT-116 colon
[27] = tested on: HOP-92 NSCLC
[28] = tested on: NCI-H23 lung
[29] = tested on: EKVX NSCLC
[30] = tested on: HCC-2998 colon
[31] = tested on: SW-620 colon
[32] = tested on: SK-OV-3 ovarian
[33] = tested on: NCI-H522 lung
[34] = tested on: CCRF-CEM leukemia
[35] = tested on: NCI-H322M lung
[36] = tested on: SK-MEL-5 melanoma
[37] = tested on: K-562 leukemia
[38] = tested on: BT-549 breast
[39] = tested on: MDA-MB-435 melanoma
[40] = tested on: HL-60(TB) leukemia
[41] = tested on: OVCAR-3 ovarian
[42] = tested on: MCF7 breast
[43] = tested on: U251 glioblastoma
[44] = tested on: IGROV1 ovarian
[45] = tested on: A498 renal
[46] = tested on: LOX IMVI melanoma
[47] = tested on: NCI-H226 lung
[48] = tested on: CAKI-1 renal
[49] = tested on: UACC-62 melanoma
[50] = tested on: HT29 colon
[51] = tested on: DU-145 prostate
[52] = tested on: SNB-75 CNS
[53] = tested on: KM12 colon
[54] = tested on: SF-539 CNS
[55] = tested on: MALME-3M melanoma
[56] = tested on: UO-31 renal
[57] = tested on: MDA-MB-231 breast
[58] = tested on: OVCAR-5 ovarian
[59] = tested on: T-47D breast

Work on `CN(C)CC(C)(CN(C)C)C(=O)/C=C/c1c(Cl)cccc1Cl` yielded a GI50 [1] of 1950 nM, a TGI [1] of 3410 nM and a GI50 [2] of 11400 nM. The TGI [2] was 23600 nM, the GI50 [3] was 1880 nM and the TGI [3] was 3310 nM. For the same compound, the GI50 [4] was 1540 nM, the TGI [4] was 2890 nM and the GI50 [5] was 1950 nM. For the same compound, the TGI [5] was 3810 nM, the GI50 [6] was 1860 nM and the TGI [6] was 3330 nM. The GI50 [7] was 1610 nM, the TGI [7] was 3120 nM and the GI50 [8] was 2140 nM. The TGI [8] was 3820 nM, the GI50 [9] was 1970 nM and the TGI [9] was 3590 nM. The GI50 [10] was 2130 nM, the TGI [10] was 3590 nM and the GI50 [11] was 2100 nM. It also gave a TGI [11] of 3590 nM, a GI50 [12] of 3720 nM and a TGI [12] of 13200 nM. The GI50 [13] was 1810 nM, the TGI [13] was 3210 nM and the GI50 [14] was 4180 nM. For the same compound, the TGI [14] was 12400 nM, the GI50 [15] was 2320 nM and the TGI [15] was 3960 nM. For the same compound, the GI50 [16] was 1790 nM, the TGI [16] was 3220 nM and the GI50 [17] was 2170 nM. It also gave a TGI [17] of 3660 nM, a GI50 [18] of 10000 nM and a TGI [18] of 21700 nM. It also gave a GI50 [19] of 200 nM, a TGI [19] of 346 nM and a GI50 [20] of 2070 nM. The TGI [20] was 3540 nM, the GI50 [21] was 1880 nM and the TGI [21] was 3290 nM. For the same compound, the GI50 [22] was 2090 nM, the TGI [22] was 4000 nM and the GI50 [23] was 2170 nM. It also gave a TGI [23] of 4240 nM, a GI50 [24] of 5610 nM and a TGI [24] of 15800 nM. For the same compound, the GI50 [25] was 2520 nM, the TGI [25] was 5200 nM and the GI50 [26] was 2030 nM. For the same compound, the TGI [26] was 3530 nM, the GI50 [27] was 2170 nM and the TGI [27] was 3650 nM. For the same compound, the GI50 [28] was 2470 nM, the TGI [28] was 5040 nM and the GI50 [29] was 4280 nM. It also gave a TGI [29] of 14100 nM, a GI50 [30] of 2240 nM and a TGI [30] of 6900 nM. It also gave a GI50 [31] of 2010 nM, a TGI [31] of 3480 nM and a GI50 [32] of 4380 nM. It also gave a TGI [32] of 15400 nM, a GI50 [33] of 1710 nM and a TGI [33] of 3090 nM. For the same compound, the GI50 [34] was 1580 nM, the TGI [34] was 2960 nM and the GI50 [35] was 3860 nM. It also gave a TGI [35] of 12300 nM, a GI50 [36] of 1390 nM and a TGI [36] of 2980 nM. For the same compound, the GI50 [37] was 4980 nM, the TGI [37] was 15900 nM and the GI50 [38] was 2520 nM. It also gave a TGI [38] of 5730 nM, a GI50 [39] of 3900 nM and a TGI [39] of 11600 nM. The GI50 [40] was 1010 nM, the TGI [40] was 2180 nM and the GI50 [41] was 1910 nM. It also gave a TGI [41] of 3370 nM, a GI50 [42] of 512 nM and a TGI [42] of 1760 nM. For the same compound, the GI50 [43] was 2120 nM, the TGI [43] was 3740 nM and the GI50 [44] was 1870 nM. It also gave a TGI [44] of 3360 nM, a GI50 [45] of 2290 nM and a TGI [45] of 4600 nM. For the same compound, the GI50 [46] was 1670 nM, the TGI [46] was 3150 nM and the GI50 [47] was 1760 nM. The TGI [47] was 3340 nM, the GI50 [48] was 1810 nM and the TGI [48] was 3230 nM. The GI50 [49] was 2160 nM, the TGI [49] was 4200 nM and the GI50 [50] was 1870 nM. For the same compound, the TGI [50] was 3410 nM, the GI50 [51] was 5180 nM and the TGI [51] was 16000 nM. It also gave a GI50 [52] of 5160 nM, a TGI [52] of 11300 nM and a GI50 [53] of 1220 nM. For the same compound, the TGI [53] was 2920 nM, the GI50 [54] was 1900 nM and the TGI [54] was 3330 nM. For the same compound, the GI50 [55] was 2160 nM and the TGI [55] was 3610 nM.
Compound `C1=C/COCc2cc(ccc2OCCN2CCCC2)Nc2nccc(n2)-c2ccc(o2)COC/1` has a GI50 [1] of 1680 nM, a TGI [1] of 4270 nM and a GI50 [2] of 2050 nM. It also gave a TGI [2] of 4490 nM, a GI50 [3] of 672 nM and a TGI [3] of 11400 nM. For the same compound, the GI50 [4] was 1020 nM, the TGI [4] was 2190 nM and the GI50 [5] was 1460 nM. The TGI [5] was 2800 nM, the GI50 [6] was 950 nM and the TGI [6] was 3230 nM. For the same compound, the GI50 [56] was 1640 nM, the TGI [56] was 3850 nM and the GI50 [7] was 2390 nM. For the same compound, the TGI [7] was 9400 nM, the GI50 [8] was 1970 nM and the TGI [8] was 4000 nM. For the same compound, the GI50 [9] was 792 nM, the TGI [9] was 2270 nM and the GI50 [57] was 1840 nM. For the same compound, the TGI [57] was 9870 nM, the GI50 [10] was 1250 nM and the TGI [10] was 2570 nM. The GI50 [11] was 1140 nM, the TGI [11] was 2370 nM and the GI50 [12] was 1250 nM. The TGI [12] was 4060 nM, the GI50 [13] was 2000 nM and the TGI [13] was 5100 nM. For the same compound, the GI50 [14] was 2580 nM, the TGI [14] was 10600 nM and the GI50 [15] was 1200 nM. It also gave a TGI [15] of 2960 nM, a GI50 [16] of 1520 nM and a TGI [16] of 4970 nM. It also gave a GI50 [17] of 1480 nM, a TGI [17] of 3920 nM and a GI50 [18] of 1430 nM. For the same compound, the TGI [18] was 3000 nM, the GI50 [19] was 1790 nM and the TGI [19] was 3220 nM. The GI50 [21] was 587 nM, the TGI [21] was 1890 nM and the GI50 [22] was 838 nM. The TGI [22] was 3050 nM, the GI50 [23] was 1540 nM and the TGI [23] was 2970 nM. For the same compound, the GI50 [24] was 256 nM, the TGI [24] was 964 nM and the GI50 [25] was 1490 nM. It also gave a TGI [25] of 4880 nM, a GI50 [26] of 852 nM and a TGI [26] of 10400 nM. The GI50 [27] was 1570 nM, the TGI [27] was 5460 nM and the GI50 [28] was 879 nM. For the same compound, the TGI [28] was 2190 nM, the GI50 [29] was 1490 nM and the TGI [29] was 3370 nM. For the same compound, the GI50 [30] was 1270 nM, the TGI [30] was 2830 nM and the GI50 [31] was 2440 nM. It also gave a TGI [31] of 8150 nM, a GI50 [32] of 758 nM and a TGI [32] of 2880 nM. It also gave a GI50 [33] of 1090 nM, a TGI [33] of 2400 nM and a GI50 [34] of 1530 nM. For the same compound, the TGI [34] was 2920 nM, the GI50 [35] was 1320 nM and the TGI [35] was 3510 nM. It also gave a GI50 [36] of 1030 nM, a TGI [36] of 2260 nM and a GI50 [37] of 1390 nM. For the same compound, the TGI [37] was 4120 nM, the GI50 [38] was 1720 nM and the TGI [38] was 3210 nM. The GI50 [39] was 1470 nM, the TGI [39] was 4090 nM and the GI50 [40] was 479 nM. The TGI [40] was 1680 nM, the GI50 [41] was 1330 nM and the TGI [41] was 3230 nM. It also gave a GI50 [58] of 590 nM, a TGI [58] of 4100 nM and a GI50 [42] of 563 nM. It also gave a TGI [42] of 1980 nM, a GI50 [43] of 1920 nM and a TGI [43] of 4790 nM. It also gave a GI50 [44] of 433 nM, a TGI [44] of 1900 nM and a GI50 [45] of 710 nM. It also gave a TGI [45] of 4220 nM, a GI50 [46] of 892 nM and a TGI [46] of 2180 nM. The GI50 [47] was 1210 nM, the TGI [47] was 4180 nM and the GI50 [48] was 452 nM. The TGI [48] was 2340 nM, the GI50 [49] was 798 nM and the TGI [49] was 2060 nM. It also gave a GI50 [50] of 1290 nM, a TGI [50] of 2820 nM and a GI50 [51] of 1560 nM. For the same compound, the TGI [51] was 10500 nM, the GI50 [52] was 1060 nM and the TGI [52] was 2270 nM. The GI50 [53] was 325 nM, the TGI [53] was 1920 nM and the GI50 [54] was 1610 nM. The TGI [54] was 3000 nM, the GI50 [59] was 613 nM and the TGI [59] was 2430 nM. It also gave a GI50 [55] of 1060 nM and a TGI [55] of 2270 nM.
